Results on seven molecules are retold here after patent US8299046B2, “Synthetic triterpenoids and tricyclic-bis-enones for use in stimulating bone and cartilage growth” (Trustees of Dartmouth College, priority 2006, dated 2012).

Test [1] concerns neonatal murine calvarial bones. In words: Neonatal murine calvarial bone formation assay. Type of test: cell-based, ICR Swiss mice. The conditions noted are these: for alkaline phosphatase in the calvarial culture media: 4 and 7 days (FIGS. 2, 5, 8, 11); for cartilage formation: calvarial cultures, 7 days (FIGS. 3, 6, 9, 12); for new bone formation: calvarial organ culture, 7 days, 40, 200, 1000 nM (FIGS. 1, 4, 10). As for the experimental part:
Neonatal murine calvarial bone formation assay. The technique for studying organ cultures of neonatal murine calvarial bones has been described in detail previously (Traianedes et al., 1999, Mundy et al., 1999). The bones were removed from the calvaria of 4-5 day old ICR Swiss mice, and then cultured in BGJ medium with 0.1% BSA for 7 Days using 4 calvarial bones per group triterpenoids in differing amounts were added for 7 days. Alkaline phosphatase was determined at 4 and 7 days and expressed as arbitrary units of alkaline phosphatase activity. At the end of the experiment the media was saved and assayed for the presence of alkaline phosphatase and the calvaria bones were then fixed overnight in 10% formalin, decalcified in 14% EDTA overnight and were then embedded in paraffin wax. Sections were cut, using a standard microtome, along the midline suture to reveal the sagittal suture and the region posterior to this suture. Four micrometer sections were taken initially and at two sequential […] depths. Sections were placed on coated glass slides (Superfrost plus, Fisher Scientific, Pittsburgh, Pa.) and stained with hematoxylin and eosin. The effects on bone formation were evaluated by morphologic assessment.
Imaging. Digital images across sections of the neonatal murine calvaria were taken from each group. Histomorphometric analysis was performed on these calvarial images using the Osteomeasure System (Osteometrics Inc., Atlanta, Ga.). The total and new bone area (expressed as mm^2×10^−3) was determined on all images across the calvarial section.

Test [2] relates to SZP synthesis in superficial zone articular chondrocytes. In words: Bovine calf stifle joint SZP assay. Type of test: cell-based. The conditions noted are these: for SZP synthesis at lower concentrations: 0.01 to 1 nM; for SZP synthesis at higher concentrations / SZP synthesis at higher concentrations with concurrent TGF-β1: 100-1000 nM; for SZP synthesis at higher concentrations: Day 3 culture media; for SZP synthesis at higher concentrations with concurrent TGF-β1: concurrent TGF-β1 (4 pM). As for the experimental part: Bovine calf stifle joint SZP assay. Bovine calf stifle joints were dissected under aseptic conditions. The superficial zone of articular cartilage of femoral condyles (approximately 100 μm thickness) was harvested using a dermatome. The cartilage slices were digested with 0.2% collagenase P in culture medium. Isolated chondrocytes were plated in monolayer at a density of 1×10^5 cells/well (approximately 2.5×10^4 cells/cm^2) in 12-well culture plates and incubated at 37° C. in a moist atmosphere of 5% carbon dioxide and 95% air. Chondrocytes were cultured in D-MEM/F-12 containing 10% fetal bovine serum over night, and then the media were changed in serum-free D-MEM/F-12 supplemented with ITSL (insulin, transferrin, selenious acid, and linoleic acid). Both media contain 100 U/ml penicillin, 100 μg/ml streptomycin, 50 μg/ml ascorbate-2-phosphate, and 0.1% bovine serum albumin. After changing the media with serum into the serum-free chemically defined media, various concentration of synthetic triterpenoids were added into the cell culture. As most of SZP is secreted into the culture medium, supernatants were harvested as samples and the SZP synthesis was analyzed by SDS-PAGE and Western blotting using a monoclonal antibody S6.79, obtained from Rush Medical College, Chicago, Ill. SZP accumulation into the culture medium was also quantified by ELISA using purified SZP as standard. The accumulation of SZP into the culture media increased in a time-dependent manner (Day 1<Day 2<Day 3). Therefore the culture of media of Day 3 was used for all the studies.

A further test relates to RAW cells. In words: Inhibition of NO production in RAW cells. The test is classed as cell-based.
Test [3] has as its system RMPI 8226 human myeloma cells. In words: Proliferation of RMPI 8226 myeloma cells. Type of test: cell-based.
Test [4] has as its system U937 human leukemia cells. The test is described as follows: Proliferation of U937 leukemia cells. Type of test: cell-based.
The test system of test [5] is heme oxygenase-1 in U937 cells. In words: Heme oxygenase-1 induction in U937 cells. Type of test: cell-based, human.
The subject of test [6] is heme oxygenase-1. In words: In vivo assay of heme oxygenase-1 induction.
Test [7] relates to CD11b expression in U937 cells. The test is described as follows: CD11b expression in U937 cells. Type of test: cell-based, human.
In another test the test system is iNOS in RAW cells. The test is described as follows: iNOS in RAW cells stimulated with interferon-γ. The test is classed as cell-based.
Test [8] has as its system heme oxygenase-1. The settings on record: Liby et al., 2005; cited from earlier work.
Test [9] deals with MCF-7 breast cancer cell lines. The settings on record: Honda et al., 2003; cited from earlier work.

For the molecule `CC1(C)CC[C@]2(C(=O)O)CC[C@]3(C)[C@H](C(=O)C=C4[C@@]5(C)C=C(C#N)C(=O)C(C)(C)[C@@H]5CC[C@]43C)[C@@H]2C1` [TP-151, 2-cyano-3,12-dioxooleane-1,9(11)-dien-28-oic acid], in test [1], the “alkaline phosphatase in the calvarial culture media” value (“alkaline phosphatase” for short) is listed as “increases”, the cartilage formation result is on record as “No evidence of cartilage formation” and the new bone formation entry was “Significant increase”. In addition, in test [2], the “SZP synthesis at lower concentrations” value is recorded as “up-regulated SZP synthesis”, the “SZP synthesis at higher concentrations” value is “down-regulated SZP synthesis in a dose-dependent manner” and the “SZP synthesis at higher concentrations with concurrent TGF-β1” value (shortened to “SZP synthesis … with concurrent TGF-β1”) is listed as “the same trend”.
Regarding `CC1(C)C(=O)C(C#N)=CC2(C)C3=CC(=O)C(C#N)=C(C#C[Si](C)(C)C)C3CCC12` (racemic) [TBE-31], the “potency for inhibition of NO production in RAW cells” value in the test with RAW cells was “extremely potent at one nanomolar concentrations”. For the same molecule, in the test on RAW cells (comparison), the “potency for NO inhibition in RAW cells compared with CDDO and TP-225” value was “much higher than CDDO and equal to TP-225”. The “proliferation of RMPI 8226 human myeloma cells” value in [3] was “inhibits proliferation”. Moreover, the “proliferation of U937 human leukemia cells” value in test [4] is “inhibits proliferation”. For the same molecule, the “induction of heme oxygenase-1 in U937 cells” value in test [5] is reported as “potent inducer”. The “potency in heme oxygenase-1 induction compared with CDDO and CDDO-Im” value in the test with heme oxygenase-1 [6] (comparison) is “much higher than CDDO and equal to CDDO-Im”. In addition, the “in vivo heme oxygenase-1 induction” value with heme oxygenase-1 [6] (oral) is “orally active”. In test [7], the “CD11b expression in U937 cells” value is “induces CD11b expression”. The “potency for CD11b induction compared with CDDO and CDDO-Im” value in [7] (comparison) was “much higher than CDDO and CDDO-Im”. In the test on iNOS in RAW cells, the “iNOS in RAW cells” value was “inhibits iNOS”.
For the molecule TGF-β1: Recombinant human TGF-β1, the “SZP synthesis (TGF-β1)” value in [2] (0.4-120 pM) is recorded as “up-regulate SZP synthesis in a dose-dependent manner”.
As to `CC1(C)CC[C@]2(C(=O)n3ccnc3)CC[C@]3(C)[C@H](C(=O)C=C4[C@@]5(C)C=C(C#N)C(=O)C(C)(C)[C@@H]5CC[C@]43C)[C@@H]2C1` [TP-235], in test [1], the “alkaline phosphatase” value was “no convincing change” and the cartilage formation result is “No evidence of cartilage formation”. The “new bone formation at 40 nM” value in test [1] (at 40 nM, 7 days (FIG. 7)) is listed as “Significant increase”. Further, in test [2], the “SZP synthesis at lower concentrations” value is “no obvious effects”, the “SZP synthesis at higher concentrations” value is “down-regulated SZP synthesis in a dose-dependent manner” and the “SZP synthesis … with concurrent TGF-β1” value is “the same trend”. Besides, in the test on heme oxygenase-1 [8], the “potency in heme oxygenase-1 induction assay (literature)” value was “highest potency amongst semi-synthetic triterpenoids”.
Take `CCNC(=O)[C@]12CCC(C)(C)C[C@H]1[C@H]1C(=O)C=C3[C@@]4(C)C=C(C#N)C(=O)C(C)(C)[C@@H]4CC[C@@]3(C)[C@]1(C)CC2` [TP-319]: in [1], the “alkaline phosphatase” value was “dose responsive increases”, the cartilage formation entry was “clear evidence increases in cartilage formation” and the new bone formation result is reported as “Some increases”. Besides, in test [2], the “SZP synthesis at lower concentrations” value was “no obvious effects”, the “SZP synthesis at higher concentrations” value is recorded as “down-regulated SZP synthesis in a dose-dependent manner” and the “SZP synthesis … with concurrent TGF-β1” value is on record as “the same trend”.
Turning to `COC(=O)[C@]12CCC(C)(C)C[C@H]1[C@H]1C(=O)C=C3[C@@]4(C)C=C(C#N)C(=O)C(C)(C)[C@@H]4CC[C@@]3(C)[C@]1(C)CC2` [TP-155], in [1], the “alkaline phosphatase” value is “increases”, the cartilage formation result is given as “Some evidence of cartilage formation was seen in these cultures (FIG. 3) however this was not significant” and the new bone formation result is given as “Significant increase”. In test [2], the “SZP synthesis at lower concentrations” value was “up-regulated SZP synthesis”, the “SZP synthesis at higher concentrations” value is reported as “down-regulated SZP synthesis in a dose-dependent manner” and the “SZP synthesis … with concurrent TGF-β1” value is reported as “the same trend”.
As to `CC1(C)C(=O)C(C#N)=C[C@]2(C)C3=CC(=O)C(C#N)=C[C@]3(C)CC[C@@H]12` [(−)-TBE-9], in test [9], the “activity against MCF-7 cell lines” value is “active”.
